Measured values published in ChEMBL document CHEMBL1129610, “3- and 4-pyridylalkyl adamantanecarboxylates: inhibitors of human cytochrome P450(17 alpha) (17 alpha-hydroxylase/C17,20-lyase). Potential nonsteroidal agents for the treatment of prostatic cancer” (J Med Chem, 1996).
Values belong to the compound of their own block, whether it stands above or below them.

Legend:
[1] = biological target: T1, Steroid 17-alpha-hydroxylase/17,20 lyase (Homo sapiens, UniProt P05093); type: microsomes, Testis, Microsomes
T1 sequence (P05093 whole entry): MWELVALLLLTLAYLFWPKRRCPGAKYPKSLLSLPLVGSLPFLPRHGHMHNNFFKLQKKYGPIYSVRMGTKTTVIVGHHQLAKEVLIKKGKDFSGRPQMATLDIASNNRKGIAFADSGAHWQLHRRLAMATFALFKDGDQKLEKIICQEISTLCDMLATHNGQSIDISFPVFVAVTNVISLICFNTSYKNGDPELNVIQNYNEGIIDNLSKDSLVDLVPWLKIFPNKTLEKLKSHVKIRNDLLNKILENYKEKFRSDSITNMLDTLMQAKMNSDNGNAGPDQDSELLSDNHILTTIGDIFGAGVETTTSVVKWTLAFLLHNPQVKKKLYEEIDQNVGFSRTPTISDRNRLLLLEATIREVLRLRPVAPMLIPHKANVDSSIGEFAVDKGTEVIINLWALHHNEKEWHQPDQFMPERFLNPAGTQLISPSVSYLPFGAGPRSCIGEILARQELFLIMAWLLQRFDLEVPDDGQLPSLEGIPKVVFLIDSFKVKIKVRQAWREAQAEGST

[2] = biological target: T1, Steroid 17-alpha-hydroxylase/17,20 lyase
Rattus norvegicus [3] = species: Rattus norvegicus; type: functional, Blood
Homo sapiens = species: Homo sapiens; type: functional, Blood
in vitro [4] = settings: rat, in vivo
Mus musculus [5] = species: Mus musculus; type: functional, Blood
in vitro [6] = settings: rat, in vivo; remark: listed apart in the source
in vitro [7] = settings: rat, in vivo; remark: listed apart in the source
Mus musculus [8] = species: Mus musculus; type: functional
Rattus norvegicus [9] = species: Rattus norvegicus; type: functional
Mus musculus [10] = species: Mus musculus; type: functional; remark: listed apart in the source

Compound: O=C(OCc1ccncc1)C12CC3CC(CC(C3)C1)C2
- Substrate metabolized at 1hr (Rattus norvegicus [3]): 100%
- Substrate metabolized at 1hr (Homo sapiens): 45%
- half-life at 1 min (in vitro [4]): < 60 s
- Substrate metabolized at 1hr (Mus musculus [5]): 100%

Compound: C[C@H](OC(=O)C12CC3CC(CC(C3)C1)C2)c1ccncc1
- half-life (in vitro [6]): 30 s

Compound: CC(C)(OC(=O)C12CC3CC(CC(C3)C1)C2)c1ccncc1
- half-life at 1 h (in vitro [7]): > 1 h
- Substrate metabolized at 1hr (Mus musculus [8]): 0%
- Substrate metabolized at 1hr (Rattus norvegicus [9]): 0%
- Substrate metabolized at 1hr (Mus musculus [10]): 2%

Next, values leading:

- IC50 [1]: 210 nM
- IC50 [2]: 820 nM
Compound: C[C@H](NC(=O)C12CC3CC(CC(C3)C1)C2)c1ccncc1

- IC50 [1]: 430 nM
- IC50 [2]: 1900 nM
Compound: C[C@@H](NC(=O)C12CC3CC(CC(C3)C1)C2)c1ccncc1

- half-life (in vitro [6]): 30 s
Compound: C[C@@H](OC(=O)C12CC3CC(CC(C3)C1)C2)c1ccncc1
